As a reminder, the ILS is the gain in survival time of treated over control animals, in per cent. Lower therefore signals little gain in survival.

The values that follow come from US20070128201A1, “Combined use of ecteinascidin-743 and platinum antineoplastic compounds” (Pharma Mar, S.A.U., priority 2003, published 2007).

Structures are written as SMILES. Where two headings read alike, the source gives them in different places.

Data set [1] concerns HOC 8 human ovarian xenograft. In words: Survival of mice bearing intraperitoneal HOC 8 xenograft. The format is in vivo. The source says: In ovarian carcinoma patients the tumor spreads into the peritoneal cavity. Therefore to mimic clinical disease we have selected a human ovarian xenograft, HOC 8, which was transplanted intraperitoneally from ascites and disseminated in the peritoneal cavity.
When the two drugs were combined the effect was much greater than that of each drug given as single agent with a dramatic increase in survival. […] Three animals were still alive after 12 months, two of them belonging to the group receiving the high ET-743 dose. They were sacrificed and a detailed macroscopic and microscopic pathological evaluation was performed. The mouse belonging to the group receiving the low ET-743 dose was apparently cured as the microscopic analysis of liver, splen, pancreas, bone marrow, diagram, ovary uterus omentum and several lymphnodes were negative.

The test system of data set [2] is human, murine and canine progenitor cells. Conditions: cited from earlier work.
The subject of data set [3] is Ovary, STS gyn, Uterus tumors. Kind of data set: Dose finding trial ET-743 day 1 & 8 followed by cisplatin: observed efficacy. The format is in vivo, human. The method, then:
We designed a multicenter dose finding trial, on a day 1 & 8 every 3 weeks schedule, with escalating doses of ET given as a 3-hr infusion with steroids and antiemetic prophylaxis, followed 30 minutes later by 1 hr infusion cisplatin at a fixed dose of 40 mg/m^2, with 2 L NS hydration.
(§1) 36 patients were entered (15 with ovarian cancer, 6 with uterus cancer, 14 with soft tissue sarcoma, 1 with other tumor type). Prior treatments of the patients were the following:
The following table illustrates the observed efficacy: […]

The format of data set [4] is in vivo, human. Conditions: ET-743 with carboplatin at a fixed target (300 mg/m^2), cycle 1 data from 11 patients. The method, then: We designed a multicenter dose finding trial, on a day 1 every 3 weeks schedule, with carboplatin given at a fixed dose of 300 mg/m^2 as a 1 hour infusion followed by escalating doses of ET given as a 3 hours infusion with steroids and antiemetic prophylaxis.
11 patients were entered (6 with ovarian cancer, 1 with lung cancer, 4 with soft tissue sarcoma). Prior treatments of the patients were the following:
ET-743 doses levels were 500, 650 and 800 μg/m^2/day; 3-6 pts were treated per dose level according to toxicity.
The maximum tolerated dose (MTD) was defined as the highest dose level tested of the combination at which at least 2 patients experience a DLT in cycle 1. If one patient encountered drug-induced DLT during either cycle 1 or 2, up to a maximum of 6 patients could be treated at that level. If DLT was not observed in the additional patients, new patients could be treated at the next higher dose level.

Data set [5] in a line: Toxicity (body weight loss, toxic deaths) of split dose Q4×3. In kind it is in vivo. The following applies: Q4×3, 1A9 xenograft experiment.
Data set [6] in a line: Toxicity of single i.v. doses of ET-743, DDP and their combination in xenograft experiments. In kind it is in vivo. The following applies: drug alone.
Description: For the administration of the drugs appropriate vehicles were injected, using the same schedule and route of injection as the drug therapies. […] In xenografts transplanted s.c. tumor growth was monitored and tumor weight (TW) was determined by measuring the tumor diameters with a Vernier caliper every 2-4 days and using the formula TW=d^2×D/2 (where d and D represent the shortest and the longest diameter respectively).
The nature of data set [7]: Dose finding trial ET-743 day 1 & 8 followed by cisplatin: toxicity. The format is in vivo, human. As to the method: We designed a multicenter dose finding trial, […], with escalating doses of ET given as a 3-hr infusion with steroids and antiemetic prophylaxis, followed 30 minutes later by 1 hr infusion cisplatin at a fixed dose of 40 mg/m^2, with 2 L NS hydration.
as §1
ET-743 doses levels were 300, 400, 500, 600 and 700 μg/m^2/day; 3-6 were treated per dose level according to toxicity.
ET-743 escalation was uneventful until 500 μg/m^2; at 600 μg/m^2 patients were accrued in 2 separate risk cohort according to prior chemotherapy extent: low risk 1 regimen (LR); high risk ≧2 regimens (HR).

Turning to `N.N.[Cl][Pt][Cl]` [DDP, cis-diaminedichloroplatinum (II), reference compound], the ILS in data set [1] (DDP monotherapy) came out at 139%.
Take `COc1cc2c(cc1O)CCN[C@]21CS[C@@H]2c3c(OC(C)=O)c(C)c4c(c3[C@H](COC1=O)N1C2[C@H]2c3c(cc(C)c(OC)c3O)C[C@@H]([C@@H]1O)N2C)OCO4` (some centres unmarked) [ET-743, ecteinascidin-743]: the “sensitivity of hematopoietic progenitors” value in data set [2] is “equal sensitivity of erythropoid and myeloid cells”. In addition, the TTP in data set [3] (patient: Ovary, prior carboplatin + taxol (NC), topotecan (PD), ET-743 400 μg/m^2 D 1&8 + cisplatin, Lung) is 6 mos; in data set [3] (patient: Ovary, prior carboplatin + taxol (NE), paclitaxel (PD), ET-743 600 μg/m^2 D 1&8 + cisplatin, Pelvis, liver), 6+ mos; in data set [3] (patient: STS gyn, prior adriamycin/ifosfamide (AD), ET-743 700 μg/m^2 D 1&8 + cisplatin, Lung), 3+ mos; in data set [3] (patient: STS-gyn, prior epirubicin + ifosfamide (AD), gemcitabine (PD), ET-743 500 μg/m^2 D 1&8 + cisplatin, Abdomen), 5+ mos; in data set [3] (patient: Uterus Colon, prior carboplatin (NE), taxol + epirubicin + cisplatin (CR), ET-743 400 μg/m^2 D 1&8 + cisplatin, Bone, Pelvis, Lung) it was 1 mos. The “BEST RESP” value is recorded as “Unc PR” in data set [3] (patient: Ovary, prior carboplatin + taxol (PR), ET-743 600 μg/m^2 D 1&8 + cisplatin, Liver Abdomen); “Radiological” in data set [3] (patient: STS-gyn, prior epirubicin + ifosfamide (AD), gemcitabine (PD), ET-743 500 μg/m^2 D 1&8 + cisplatin, Abdomen, wrapped cell reads Radiological PR non measurable lesions); “Radiological” in data set [3] (patient: Uterus Colon, prior carboplatin (NE), taxol + epirubicin + cisplatin (CR), ET-743 400 μg/m^2 D 1&8 + cisplatin, Bone, Pelvis, Lung, wrapped cell reads Radiological PR non measurable lesions). In addition, the increase in life span (ILS) in data set [1] (ET-743 0.15 mg/kg, Q4×3, monotherapy) is 23%; in data set [1] (ET-743 0.05% (printed), Q4×3, monotherapy), 21%. For the same compound, the MTD in data set [4] amounted to 800 μg/m^2; in data set [7] (ET-743 with cisplatin 40 mg/m^2, previously treated patients, day 1 & 8 every 4 weeks), 700 μg/m^2. For the same compound, in data set [5], the “mean body weight loss” value is 14%. Further, the “maximal single i.v. dose that caused no toxic death” value in data set [6] is 0.2 mg/kg. Further, the “Recommended dose (RD)” value in data set [7] (human, in vivo) is 500 μg/m^2.
